Read-outs that look alike come from different tables or passages of the source. Where a SMILES comes first, the peptide text is derived from it. Side-chain parts run from the residue outwards. [ ]: non-standard residue; d: D form. The star is where a group is joined. DOTA = O=C(O)CN1CCN(CC(=O)O)CCN(CC(=O)*)CCN(CC(=O)O)CC1; 2Nal = N[C@@H](Cc1ccc2ccccc2c1)C(=O)O; dNMeOrn = CN[C@H](CCCN)C(=O)O; 4Abz = Nc1ccc(C(=O)O)cc1
Columns and labels:
[1] = Small animal PET imaging in Daudi xenograft bearing mice; assay type: in vivo; settings: CB17 SCID, mouse, iv, total radioactivity, 90 min p.i., dynamic PET, ROI analysis, n=1 per compound
Experimental: Small aminal PET imaging studies were performed using a Siemens Inveon PET scanner. Animals were anesthetized with isoflurane and injected via the tail vein with 10 to 15 MBq (0.1 nmol) of the respective tracer. Dynamic imaging (n=1 per compound) was performed after on-bed injection for 1.5 h, and static images (n=1 per compound) were acquired at 1 h p.i. with an acquisition time of 15 min. Data analysis was performed using the Inveon Research Workplace software. Images were reconstructed using a 3D ordered-subsets expectation maximum (OSEM3D) algorithm without scanner and attenuation correction. Time-activity curves (Figure 4) were obtained by generating isocontour regions of interest (ROI) for the tumor and the heart content (as a surrogate for blood activity), as well as by defining two spherical ROIs (each 23.4 mm^3) in the thigh area (muscle) and areas of homogenous tracer uptake in the liver, followed by plotting of average activity ± SD per volume in these ROIs over time.  Figure 4 Results from small animal PET imaging using [^68Ga]PentixaFor (top row), [^68Ga]DOTA-r-a-ABA-CPCR4 (middle row) and [^68Ga]DOTA-r-a-ABA-iodoCPCR4 (bottom row) in Daudi xenograft bearing CB17 SCID mice. Images on the left (MIP) were obtained by static imaging (1h p.i., n=1), the time activity curves (TAC) on the right were acquired by dynamic PET imaging (0-90 min p.i., n=1).

[2] = Biodistribution in Daudi xenograft bearing mice; assay type: in vivo, mouse; settings: female, CB-17 SCID, mouse, iv, total radioactivity, 1h p.i., means ± SD
In short: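 Female CB-17 SCID mice with Daudi xenografts (n=4-5) received 5-10 MBq (0.08-0.11 nmol) ^68Ga- or ^177Lu-labelled ligand i.v.; blocking by coinjected 50 µg AMD3100. Organs counted by γ-counter at 1, 6 and 48 h p.i.; %ID/g (mean ± SD).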

- tissue uptake per volume at 1.5 h ([1]; kidney, read-out: Kidney uptake in PET): 9.4 ± 0.2 %ID/mL
- tissue uptake per volume at 1.5 h ([1]; liver, average ± SD per volume in ROI, read-out: Liver uptake in PET): 6 ± 0.2 %ID/mL
- tissue uptake per volume at 1.5 h ([1]; tumor (Daudi xenograft), Daudi xenograft, read-out: Tumor accumulation in PET): 12 ± 0.7 %ID/mL
- tissue uptake at 1 h ([2]; adrenals, tracer only, i.v., γ-counter, n=4-5 (68Ga: n=4), read-out: Biodistribution adrenals): 1.9 ± 1.14 %ID/g
- tissue uptake at 1 h ([2]; adrenals, with AMD3100, 50 µg per animal, coinjected (CXCR4 competition), coinjection of 50 µg AMD3100/animal, n=3, read-out: Biodistribution adrenals, competition with AMD3100): 1.02 ± 0.27 %ID/g
- tissue uptake at 1 h ([2]; blood, with AMD3100, 50 µg per animal, coinjected (CXCR4 competition), coinjection of 50 µg AMD3100/animal, n=3, read-out: Biodistribution blood, competition with AMD3100): 2.98 ± 0.57 %ID/g
- tissue uptake at 1 h ([2]; colon, tracer only, i.v., γ-counter, n=4-5 (68Ga: n=4), read-out: Biodistribution colon): 0.67 ± 0.13 %ID/g
- tissue uptake at 1 h ([2]; colon, with AMD3100, 50 µg per animal, coinjected (CXCR4 competition), coinjection of 50 µg AMD3100/animal, n=3, read-out: Biodistribution colon, competition with AMD3100): 0.47 ± 0.09 %ID/g
- tissue uptake at 1 h ([2]; femur, tracer only, i.v., γ-counter, n=4-5 (68Ga: n=4), read-out: Biodistribution femur): 1.27 ± 0.32 %ID/g
- tissue uptake at 1 h ([2]; femur, with AMD3100, 50 µg per animal, coinjected (CXCR4 competition), coinjection of 50 µg AMD3100/animal, n=3, read-out: Biodistribution femur, competition with AMD3100): 0.74 ± 0.11 %ID/g
- tissue uptake at 1 h ([2]; heart, tracer only, i.v., γ-counter, n=4-5 (68Ga: n=4), read-out: Biodistribution heart): 1.51 ± 0.25 %ID/g
- tissue uptake at 1 h ([2]; heart, with AMD3100, 50 µg per animal, coinjected (CXCR4 competition), coinjection of 50 µg AMD3100/animal, n=3, read-out: Biodistribution heart, competition with AMD3100): 1.37 ± 0.33 %ID/g
- tissue uptake at 1 h ([2]; kidney, tracer only, i.v., γ-counter, n=4-5 (68Ga: n=4), read-out: Biodistribution kidney): 11.5 ± 3.58 %ID/g
- tissue uptake at 1 h ([2]; kidney, with AMD3100, 50 µg per animal, coinjected (CXCR4 competition), coinjection of 50 µg AMD3100/animal, n=3, read-out: Biodistribution kidney, competition with AMD3100): 7.16 ± 1.62 %ID/g
- tissue uptake at 1 h ([2]; liver, with AMD3100, 50 µg per animal, coinjected (CXCR4 competition), coinjection of 50 µg AMD3100/animal, n=3, read-out: Biodistribution liver, competition with AMD3100): 4.62 ± 0.56 %ID/g
- tissue uptake at 1 h ([2]; lung, tracer only, i.v., γ-counter, n=4-5 (68Ga: n=4), read-out: Biodistribution lung): 3.15 ± 0.5 %ID/g
- tissue uptake at 1 h ([2]; lung, with AMD3100, 50 µg per animal, coinjected (CXCR4 competition), coinjection of 50 µg AMD3100/animal, n=3, read-out: Biodistribution lung, competition with AMD3100): 3.12 ± 0.57 %ID/g
- tissue uptake at 1 h ([2]; muscle, tracer only, i.v., γ-counter, n=4-5 (68Ga: n=4), read-out: Biodistribution muscle): 0.45 ± 0.05 %ID/g
- tissue uptake at 1 h ([2]; muscle, with AMD3100, 50 µg per animal, coinjected (CXCR4 competition), coinjection of 50 µg AMD3100/animal, n=3, read-out: Biodistribution muscle, competition with AMD3100): 0.4 ± 0.11 %ID/g
- tissue uptake at 1 h ([2]; pancreas, tracer only, i.v., γ-counter, n=4-5 (68Ga: n=4), read-out: Biodistribution pancreas): 0.68 ± 0.01 %ID/g
- tissue uptake at 1 h ([2]; pancreas, with AMD3100, 50 µg per animal, coinjected (CXCR4 competition), coinjection of 50 µg AMD3100/animal, n=3, read-out: Biodistribution pancreas, competition with AMD3100): 0.69 ± 0.07 %ID/g
- tissue uptake at 1 h ([2]; small intestine, tracer only, i.v., γ-counter, n=4-5 (68Ga: n=4), read-out: Biodistribution small intestine): 0.94 ± 0.13 %ID/g
- tissue uptake at 1 h ([2]; small intestine, with AMD3100, 50 µg per animal, coinjected (CXCR4 competition), coinjection of 50 µg AMD3100/animal, n=3, read-out: Biodistribution small intestine, competition with AMD3100): 0.94 ± 0.31 %ID/g
- tissue uptake at 1 h ([2]; spleen, tracer only, i.v., γ-counter, n=4-5 (68Ga: n=4), read-out: Biodistribution spleen): 2.01 ± 0.19 %ID/g
- tissue uptake at 1 h ([2]; spleen, with AMD3100, 50 µg per animal, coinjected (CXCR4 competition), coinjection of 50 µg AMD3100/animal, n=3, read-out: Biodistribution spleen, competition with AMD3100): 2.38 ± 0.23 %ID/g
- tissue uptake at 1 h ([2]; stomach, tracer only, i.v., γ-counter, n=4-5 (68Ga: n=4), read-out: Biodistribution stomach): 1.2 ± 0.1 %ID/g
- tissue uptake at 1 h ([2]; stomach, with AMD3100, 50 µg per animal, coinjected (CXCR4 competition), coinjection of 50 µg AMD3100/animal, n=3, read-out: Biodistribution stomach, competition with AMD3100): 0.97 ± 0.32 %ID/g
- tissue uptake at 1 h ([2]; tumor (Daudi xenograft), tracer only, i.v., γ-counter, n=4-5 (68Ga: n=4), read-out: Biodistribution tumor (Daudi xenograft)): 11.7 ± 1.31 %ID/g
- tissue uptake at 1 h ([2]; tumor (Daudi xenograft), with AMD3100, 50 µg per animal, coinjected (CXCR4 competition), coinjection of 50 µg AMD3100/animal, n=3, read-out: Biodistribution tumor, competition with AMD3100): 2.52 ± 0.36 %ID/g
SMILES: C[C@@H](NC(=O)[C@@H](CCCNC(=N)N)NC(=O)CN1CCN(CC(=O)O)CCN(CC(=O)O)CCN(CC(=O)O)CC1)C(=O)Nc1ccc(C(=O)NCCC[C@@H]2C(=O)N[C@@H](CCCNC(=N)N)C(=O)N[C@@H](Cc3ccc4ccccc4c3)C(=O)NCC(=O)N[C@H](Cc3ccc(O)cc3)C(=O)N2C)cc1 [[^68Ga]DOTA-r-a-ABA-CPCR4, metal not drawn] (cyclo([2Nal]G[dY][dNMeOrn]([4Abz-dA-dR-DOTA])R))

Reference: paper PMC7381729, “A new class of PentixaFor- and PentixaTher-based theranostic agents with enhanced CXCR4-targeting efficiency” (Theranostics, 2020)
